Test results: patent US5342612A, “Compositions for the treatment of mammalian diseases” (priority 1991, dated 1994)
Read-outs that look alike come from different tables or passages of the source.

Tests used:
S. aureus mastitis = assay: Therapy of S. aureus bovine mastitis (background); settings: in vivo efficacy trials; in words
[1] = test system: Staphylococcus aureus mastitis (Newbould 305); assay: Efficacy of lysostaphin formulated in vehicles as intramammary infusion against Staphylococcus aureus mastitis; type: in vivo, bovine (dairy cows)
Excerpt: This experiment examines the ability of various lysostaphin formulations to eliminate S. aureus infections in the bovine mammary gland and compares the formulations with the testing of lysostaphin in a peanut oil-gel matrix, similar to that used in the commercial product CEFA-LAK®, which is used to treat mastitis in lactating dairy cows.
Lysostaphin is formulated in three vehicles: 15% w/v poloxamer 407 NF, 50% w/v glycerol or 10% w/v triacetin. Lysostaphin is also formulated in a peanut oil-gel matrix. These formulations are infused into the bovine mammary gland and the ability of these combinations to exact a biological response, either by curing the infection or by clearing the mammary gland temporarily of S. aureus, are assessed.
Recombinant lysostaphin is suspended in 10.0 mL of peanut oil vehicle or dissolved in 60.0 mL of appropriate sterile vehicle (sPBS) at a concentration of 10.0 mg/mL or 1.67 mg/mL, respectively. Each of 15% poloxamer 407 NF (PLURONIC® ACID F127, a polyoxyethylene-polyoxypropylene derivative, BASF Corporation, Parsippany, N.J.); 50% glycerol (Sigma Chemical Co., St. Louis, Mo.); and 10% triacetin (glyceryl triacetate, Sigma Chemical Co., St. Louis, Mo.) are prepared in sterile phosphate buffered saline.
Staphylococcus aureus infections of the mammary gland provide an excellent model system for evaluating therapeutic efficacy of a variety of pharmaceutical and biological agents for many infectious diseases of mammals. Therefore, experimental infections are established with S. aureus (strain Newbould 305). All mammary glands to be inoculated are free of pathogens and have individual quarter somatic cell counts (SCC) less than 200,000 cells/mL of milk. Inoculum is prepared from a four-hour culture grown in trypticase soy broth and diluted. Inoculations are made by infusion of 1.0 mL diluted culture containing 90 colony forming units of S. aureus (Newbould 305) into the teat cistern of a milked-out mammary quarter. Quarters which fail to establish an infection after six days from initial inoculation are reinfected.
Prepared in PBS is 50% glycerol and the solution is then sterile filtered (0.45μ). Poloxamer 407 NF is mixed overnight and prepared similarly. A 10% triacetin solution is prepared aseptically in sterile PBS. Appropriate amounts of lysostaphin is added so the final concentration is 1.67 mg/mL. All preparations are in a total volume of 60.0 mL and made the day of the infusion. All solutions are sterile filtered through a 0.45μ filter.
Duration of treatment: 3 consecutive PM milkings
Quarters are randomly assigned to one of six treatment groups. All quarters are infused with the appropriate vehicle (60.0 mL) with or without lysostaphin over three consecutive PM milkings. […]

S. aureus = assay: Potentiation of bacteriostatic activity of lysostaphin by vehicles (checkered analysis); type: cell-based, Staphylococcus aureus
Excerpt: In order to identify the nontoxic formulations for mammalian use, toxicity is employed as a method to eliminate direct bactericidal effects on the S. aureus, as well as potential toxic effects on the target animal. Compounds are formulated with r-lysostaphin at concentrations below toxic effects and compared to the bacteriostatic activity of r-lysostaphin in a saline formulation. Some compounds potentiate r-lysostaphin bacteriostatic activity by as much as 300-1000 fold.
Several surfactants, detergents, oils, emollients and membrane solubilizers are chosen as representative of various classes of compounds which may affect protein activity. These vehicles are then evaluated for toxicity and potentiation of the bacteriostatic effects of r-lysostaphin on S. aureus according to the methods described in the foregoing examples. […] Secondly, the vehicles are subjected to the toxicity test on murine cells in vitro. Viable cells are evaluated by trypan blue exclusion and normalized to an untreated control. Thereafter, dairy cattle are infused through the teat canal with various concentrations of the vehicle to make a determination of the irritation potential after intramammary infusion as a measure of mammalian toxicity. Milk samples are collected after infusion of said vehicles and the somatic cell count is determined. The Stimulation Index equals the post-infusion SCC divided by the pre-infusion SCC. The vehicles showing minimal toxicity to S. aureus and mammalian cells in vitro and in vivo are subsequent candidates for evaluation in the in vivo potentiation trials.
Various vehicle combinations are tested in a standard checkered analysis which simultaneously varies the concentration of both parameters to examine the individual contribution of each. Vehicles are all compared to r-lysostaphin in a saline solution, i.e., the potentiation index. […] Glycerol and triacetin, while only potentiating the activity of r-lysostaphin 6-8 fold, is manifested by bactericidal effects (see above Table IV).

mammary gland = settings: bovine, in vivo
Protocol: Multiparous Holstein-Fresian dairy cattle cultured negative for infection and with individual quarter somatic cell counts less than 200,000 cells/mL are used. The lactating dairy cows receive a ration consisting of corn silage, alfalfa hay and concentrate which is formulated to provide recommended amounts of minerals and vitamins for a lactating dairy cow. Water is provided ad libitum.
The somatic cell count (SCC) of twelve normal glands are determined prior to treatment. Three groups of four quarters each receive an intramammary infusion of 10 mL to 60 mL of the respective vehicles identified in Example 1, 15% w/v poloxamer 407 NF (PLURONIC® F127), 50% w/v glycerol, 10% w/v triacetin (glyceryl triacetate) and the sPBS as a control. In vivo degree of irritation is measured by infusing a quarter of a mammary gland with the vehicle and measuring the SCC at 12, 36 and 60 hours after infusion. The data are expressed as the stimulation index which is calculated as the average experimental SCC divided by the control SCC.

[2] = test system: A20 (B-cell tumor cell line); assay: Toxicity of formulations on mammalian cell lines (cell viability, Coulter); type: cell-based, murine
Protocol: (§1) Cell Lines: A20: B-cell tumor cell line 9C127: T-cell hybridoma cell line LB/62287: B-cell lymphoma cell line P388.D1: Macrophage tumor cell line
(§2) Cell lines (1×10^5 /well; >85% viability) are cultured in 24 well flat bottom plates in RPMI® medium (Gibco Laboratories, Grand Island, N.Y.) supplemented with 10% fetal calf serum, streptomycin (100 μg/mL) and penicillin (100 U/mL). Cultures are incubated (37° C., 10% CO2) with the following concentrations of vehicles:
(§3) c) 1.0%, 0.1% or 0.01% Triacetin or IMWITOR®
(§4) After a 72 hour or 6 hour incubation period, cells are harvested and counted by the Coulter Counter (Northwell Drive, England). Cell viability is determined using a Coulter Channelyzer.
(§5) The relative toxicity of the sample formulations to estimate the relative degree of toxicity for in vivo administration is carried out in vitro with the mammalian cell lines. Various concentrations of the vehicles are incubated for either 6 or 24 hours with the different mammalian cell lines. Immediate toxicity is evaluated at 6 hours by quantitating the number of dead cells in treated wells as compared to the untreated controls. Long term toxicity effects as well as effects which may inhibit cell growth are evaluated by measuring the relative degree of proliferation after an additional 48 hours incubation with ^3 H-thymidine.

[3] = as above; type: cell-based, murine
Protocol: as §1, §2, §3, §4, §5

[4] = test system: LB/62287 (B-cell lymphoma cell line); assay: as above; type: cell-based, murine
Protocol: as §1, §2, §3, §4, §5

in vitro = type: cell-based, murine; settings: mouse, p388.d1 cells, Relative Toxicity at 6 Hours
Protocol: as §1, §2, §3, §4, §5

[5] = mouse, a20 cells, Relative Toxicity at 6 Hours

Compound | Clearing of the mammary gland of S. aureus (S. aureus mastitis) | % Cures ([1]; 100 mg lysostaphin infusions on three consecutive days) [%] | Effect on potentiating the in vivo efficacy of lysostaphin ([1]; in words) | Character of potentiation (S. aureus; in words (footnotes, text)) | Vehicle Conc. w/Max. Potentiation (%) (S. aureus; with r-lysostaphin) | Tolerability / irritation upon infusion (mammary gland) | Relative Toxicity at 6 Hours [2] | Relative Toxicity at 72 Hours [2] | viability at 6 h ([3]; lb/62287 b-cell lymphoma, Relative Toxicity at 6 Hours) [%] | viability at 72 h ([3]; lb/62287 b-cell lymphoma, Relative Toxicity at 72 Hours) [%] | viability at 6 h [3, 5] [%] | Relative Toxicity at 6 Hours [4] | Relative Toxicity at 72 Hours [4] | viability at 6 h ([3]; lb/62287 b-cell lymphoma, LB, 6 h, vehicle 0.01%, read-out: Relative Toxicity at 6 Hours) [%] | viability at 6 h ([3]; lb/62287 b-cell lymphoma, LB, 6 h, vehicle 0.1%, read-out: Relative Toxicity at 6 Hours) [%] | viability at 6 h ([3]; lb/62287 b-cell lymphoma, LB, 6 h, vehicle 1.0%, read-out: Relative Toxicity at 6 Hours) [%] | viability at 72 h ([3]; lb/62287 b-cell lymphoma, LB, 72 h, vehicle 0.01%, read-out: Relative Toxicity at 72 Hours) [%] | viability at 72 h ([3]; lb/62287 b-cell lymphoma, LB, 72 h, vehicle 0.1%, read-out: Relative Toxicity at 72 Hours) [%] | viability at 72 h ([3]; lb/62287 b-cell lymphoma, LB, 72 h, vehicle 1.0%, read-out: Relative Toxicity at 72 Hours) [%] | viability at 6 h (in vitro) [%]
lipopolysaccharide | able to clear the mammary gland temporarily of S. aureus |  |  |  |  |  |  |  |  |  |  |  |  |  |  |  |  |  |  | 
CC(=O)OCC(COC(C)=O)OC(C)=O [Triacetin, glyceryl triacetate] |  | 25 | Neither glycerol nor triacetin (both have a cure rate of 25%) has any significant effect | Potentiates the bactericidal activity of rlysostaphin | 10.0 | A small amount of irritation to some animals | - | - | 75 to 90 | 0 to 24 | 75 to 90 | - | - |  |  |  |  |  |  | 
CCCCCCCC(=O)OCC(O)CO (centres unmarked) [IMWITOR ®, Glyceryl monocaprylate] |  |  |  |  |  |  | - | - |  |  | 50 to 74 |  |  | 50 to 74 | 25 to 49 | 25 to 49 | 50 to 74 | 0 to 24 | 0 to 24 | 75 to 90
